According to US20140243415A1, “COMPOUNDS INHIBITING GALECTIN-1 EXPRESSION, CANCER CELL PROLIFERATION, INVASION, AND TUMORIGENESIS” (ONCOETHIX SA, priority 2011, published 2014):

Key:
[1] = tested on: SQ20B; test: MTT cell cytotoxicity assay; format: cell-based, human
Description: (§1) Cell survival was determined using the MTT assay (3-[4,5-dimethylthiazol-2-yl]-2,5-diphenyltetrazolium bromide; Sigma, Saint-Quentin Fallavier, France). The conversion of yellow water-soluble tetrazolium MTT into purple insoluble formazan is catalyzed by mitochondrial dehydrogenases and used to estimate the number of viable cells. In brief, cells were seeded in 96-well tissue culture plates at a density of 2×10^3 cells/well. After 72 h drug exposure and 48 h wash-out, cells were incubated with 0.4 mg/ml MTT for 4 hours at 37° C. After incubation, the supernatant was discarded, insoluble formazan precipitates were dissolved in 0.1 ml of DMSO and the absorbance was measured at 560 nm by use of a microplate reader (Thermo, France). Wells with untreated cells or with drug-containing medium without cells were used as positive and negative controls respectively. IC50's were determined as the halves of maximal inhibitory drug concentration for each cell line.
(§2) The antiproliferative effects of OTX-008 and anginex were assessed using MTT assay in a panel of human cancer cell lines of human origins expressing various levels of Lgals-1 mRNA and galectin-1 protein expressions (Supplementary Table 1). […] Remaining cell lines were less sensitive to OTX-008 with GI50 values >9 μM. […] No correlation between mRNA expressions of galectin-2, galectin-3, and galectin-8 as well as semaphorin-3A, semaphorin-3B, neuropilin-1, VEGFR1-3, VEGFA-D, and PDGFRa&P3 and sensitivity to OTX-008 were detected in the panel.

[2] = tested on: OVCAR3; test: MTT cell cytotoxicity assay; format: cell-based, human; details: 72 h drug exposure and 48 h wash-out
Description: as §1, §2

[3] = tested on: A2780-1A9; test: MTT cell cytotoxicity assay; format: cell-based, human
Description: as §1, §2

[4] = target: T1, galectin-1 (Homo sapiens, UniProt P09382); test: Western blot of galectin-1 in SQ20B cells; format: cell-based; details: 3 μM OTX-008, 48 and 72 h exposure
T1 construct: Western Blot of galectin-1 on SQ20B cells treated with 3 μM OTX-008 for 24 h, 48 h and 72 h; endogenous in cells; host or cells: SQ20B (ATCC)
Description: FIG. 3. Effects of OTX-008 on galectin-1 expression and localization. A—Western Blot of galectin-1 on SQ20B cells treated with 3 μM OTX-008 for 24 h, 48 h and 72 h. B and C—Immunofluorescence of galectin-1 on SQ20B cells treated with 3 μM OTX-008 for 24 and 48 h. B—OTX-008 treatment decreases galectin-1 immunostaining in SQ20B cells. C—Galectin-1 translocates into the nucleus after OTX-008 exposure. D—Western Blot of p-AKTser473, AKT, p-S6, p-ERK1/2, ERK and p-PKCα in SQ20B cells treated with 3 μM OTX-008 for 10 min, 1 h, 2 h, 5 h and 24 h.
FIG. 4. OTX-008-induced galectin-1 oxydation and degradation by the proteosome system A—Western Blot of galectin-1 on SQ20B cells treated 48 h with 10 μM N-acetylcysteine (NAC), 55 μM β-mercaptoethanol (βME), 1 mM Tempol and 10 μM co-enzyme Q10 (Q10) with or without 3 μM OTX-008. B—Western Blot of galectin-1 on SQ20B cells treated 48 h with 3 μM OTX-008, pretreated 2 h with proteasome inhibitor Bortezomib (10 nM) and then treated 48 h with 3 μM OTX-008 (BTZ—OTX-008) or treated 48 h with 10 nM Bortezomib+3 μM OTX-008 (BTZ+OTX-008).
Cells were lysed in buffer containing 50 mM HEPES (pH 7.6), 150 mM NaCl, 1% Triton X-100, 2 mM sodium vanadate, 100 mM NaF, and 0.4 mg/ml phenylmethylsulfonyl fluoride. Equal amounts of protein (30 μg/lane) were subjected to SDS-PAGE and transferred to nitrocellulose membranes. […]

[5] = tested on: cdc2 (tyrosine 15); test: Western blot of phosphorylated cdc2 in SQ20B; format: cell-based, human; details: 3 μM OTX-008 for 72 h
Description: Cells were lysed in buffer containing 50 mM HEPES (pH 7.6), 150 mM NaCl, 1% Triton X-100, 2 mM sodium vanadate, 100 mM NaF, and 0.4 mg/ml phenylmethylsulfonyl fluoride. Equal amounts of protein (30 μg/lane) were subjected to SDS-PAGE and transferred to nitrocellulose membranes. Membranes were blocked with 5% milk in 0.05% Tween 20/phosphate-buffered saline and then incubated with the primary antibody overnight. Membranes were then washed and incubated with the secondary antibody conjugated to horseradish peroxidase. Bands were visualized by using the enhanced chemiluminescence Western blotting detection system. Densitometric analysis was performed under conditions that yielded a linear response. The following antibodies were used: anti-p-cdc2 (tyr15), anti-p-wee1 (ser642), anti-p-p44/42 MAPK (thr202/tyr204), anti-p44/42, anti-p-AKT (ser473), anti-AKT, anti-p-S6 (ser235/236) (Cell Signaling, Saint Quentin Yvelines, France), anti-p-PKCα (ser657) (BD Biosciences, Le-Pont-de-Claix, France) and anti-galectin-1 (Abcam, Cambridge, Mass., USA). All antibodies were used at a 1:1000 dilution.
To study the mechanism of OTX-008-induced inhibition of cell proliferation, the effect of OTX-008 on cell cycle in SQ20B cells was examined (FIG. 5B). […] Activation of cdc2 (cdk1) by de-phosphorylation of tyrosine 15 is required for G2/M transition. […]

[6] = 72 h drug exposure and 48 h wash-out

T1 sequence (P09382 whole entry): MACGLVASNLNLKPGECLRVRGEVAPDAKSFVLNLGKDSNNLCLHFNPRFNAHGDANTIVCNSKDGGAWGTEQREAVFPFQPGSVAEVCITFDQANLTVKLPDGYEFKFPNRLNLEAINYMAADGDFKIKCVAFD

CN(C)CCNC(=O)COc1c2cccc1Cc1cccc(c1OCC(=O)NCCN(C)C)Cc1cccc(c1OCC(=O)NCCN(C)C)Cc1cccc(c1OCC(=O)NCCN(C)C)C2 [OTX-008]
sensitivity to OTX-008 among the cell lines tested [1]: most sensitive | antiproliferative effects (MTT) [1, 6]: dose-dependent antiproliferative effects | antiproliferative effects (MTT) [2]: dose-dependent antiproliferative effects | sensitivity to OTX-008 [3]: only marginally sensitive | antiproliferative effects (MTT) [3, 6]: dose-dependent antiproliferative effects | galectin-1 protein expression [4]: decreased galectin-1 protein expression | cdc2 activity (phosphorylation on tyrosine 15) [5]: inactivated cdc2
